From patent publication US10729701B2, “Compounds that are analogs of squalamine, used as antibacterial agents” (VIRBAC, priority 2015, dated 2020)
Values after ≈ are worked out from the molar mass of the structure shown. Like-named read-outs stand apart in the source and are kept apart here.

Columns and labels:
P. aeruginosa (PAO1) [1] = experiment: Potentiating of doxycycline activity by aminosteroidal derivative; assay type: cell-based, Pseudomonas aeruginosa; settings: Doxycycline concentration used 2 μg/ml, 37° C., 24 h
Procedure: (§1) This method requires the use of a 96-well plate; 100 μl of a liquid culture medium are deposited in each well and then inoculated with the microbial suspension prepared above. The necessary volume to be inoculated is calculated for an OD of 0.01, which corresponds to approximately 5×10^6 bacteria in each well. In this plate, the first line corresponds to a negative control (200 μl of sterile culture medium in each well), the second line to a positive control (100 μl of sterile culture medium+100 μl of a bacterial suspension), the third line contains 192 μl of culture medium; 8 μl of aminosteroidal product to be tested are placed in each well. Subsequently, cascade dilution is carried out starting from this line. 8 μl of a doxycycline solution (1 mg dissolved in 20 ml) are subsequently added to each well of lines 3 to 8, in order to obtain a final concentration of antibiotic of 2 μg/ml. 92 μl of bacterial suspension are subsequently added to lines 3 to 8. The results (the determination of the MIC (2 μg/ml of doxycycline) in the presence of X μg/ml of aminosteroidal derivative) are read after incubating at 37° C. for 24 h in a humid atmosphere. After incubating at 37° C. for 24 h, 40 μl of nitrotetrazolium iodide are added to each well, making it possible to reveal the presence of living bacteria by coloring the medium pink.
(§2) The use of low amounts of aminosteroidal derivatives makes it possible to restore (to reduce) the necessary concentration of antibiotic to kill the strain under consideration.

CHO-K1 cells = experiment: WST-1 cytotoxicity test; assay type: cell-based, Chinese hamster; settings: Cricetulus griseus, WST-1 test, 24 hours, concentration reducing cell viability by 50%
Procedure: The WST-1 test was used to measure the cytotoxic activity of the products. This is a colorimetric test which makes it possible to measure the viability and the degree of cell proliferation.
The WST-1 test was carried out on Chinese hamster ovary cells. The CHO-K1 cells (ATCC, USA) are kept cultured in McCoy's 5 A medium additivated with 10% of fetal calf serum, with 2 mM of L-glutamine and with a penicillin/streptomycin mixture (100 U/ml: 10 μg/ml). Incubating is carried out at 37° C. under an atmosphere enriched in CO2 (5%) and subculturing is carried out every two days.
The cells are transferred into 96-well plates (25 000 cells/ml) in complete McCoy's 5 A medium and are maintained at 37° C. for 24 h under a humid atmosphere enriched in CO2 (5%). Increasing concentrations of test products are added to the wells in duplicate tests and 8 growth controls containing the cells in the medium alone are included in each series of tests. After 24 hours at 37° C. (5% of CO2), the culture medium is removed, the cells are rinsed in phosphate buffer (PBS) and 50 μl of PBS containing 10% of WST-1 reactant are added to each well. After incubating at 37° C. for 20 minutes, the results are read by spectrophotometry at 450 nm.
The results are expressed in the form of dose-response relationships, modeled by a nonlinear regression analysis using the TableCurve software.

[2] = system: S. aureus Methicillin-resistant; experiment: Minimum inhibitory concentration (MIC), microplate dilution; assay type: cell-based; settings: Staphylococcus aureus
Procedure: (§3) A positive control (1940 μl of culture medium+40 μl of DMSO+20 μl of the bacterial suspension) from a defrosted biological strain (the preservation of the biological strains is carried out at −80° C. in glycerol).
(§4) The microorganisms were handled under a hood in the laboratory of L2 type and, before any handling operation, a UV cycle was programmed and only sterile material was used. […] The chemical molecules to be tested were prepared in a DMSO/methanol (50/50) mixture at a concentration of 5 mg/ml.
(§5) After incubating for 24 h, the optical density was measured using a spectrophotometer at 600 nm by withdrawing 100 μl of the bacterial suspension diluted in 900 μl of the sterile culture medium. This test required the use of a 96-well plate and the necessary volume of the microbial suspension to be inoculated was calculated for an OD corresponding to a value equal to 0.01 in each well. In this plate, the first line corresponded to the negative control (195 μl of sterile culture medium in each well), the second line to the positive control (inoculated culture medium with the addition of 2% of DMSO), the third line was charged twice with bacterial suspension, 8 μl of product to be tested was placed in each well. Subsequently, cascade half dilution was carried out starting from this line.
(§6) The first column was used as inhibition control. A sterile filter was subsequently placed on the microplate, allowing the passage of gases but not of contaminants. The microplate was incubated at 37° C. in a humid atmosphere for 24 h.
(§7) NB: The medium used is the Mueller-Hinton (MH) medium for the bacteria. All the tests were carried out in duplicate.
(§8) After incubation, the filter was replaced with a transparent film and subsequently reading of OD was carried out in an IEMS plate spectrophotometer at 620 nm. A calculation of the minimum inhibitory concentration (MIC) was carried out.

E. coli ATCC 25922 = experiment: as above; assay type: cell-based; settings: Escherichia coli, ATCC25922
Procedure: as §3, §4, §5, §6, §7, §8

P. aeruginosa (PAO1) [3] = experiment: Potentiating of chloramphenicol activity by aminosteroidal derivative; assay type: cell-based, Pseudomonas aeruginosa; settings: Chloramphenicol concentration used 4 μg/ml
Procedure: as §1, with “8 μl of a doxycycline solution (1 mg dissolved in 20 ml) are subsequently added to each well of lines 3 to 8, in order to obtain a final concentration of antibiotic of 2 μg/ml.” left out, “The results (the determination of the MIC (2 μg/ml of doxycycline) in the presence of X μg/ml of aminosteroidal derivative) are read after incubating at 37° C. for 24 h in a humid atmosphere.” left out
as §2

P. aeruginosa ATCC 27853 = experiment: Minimum inhibitory concentration (MIC), microplate dilution; assay type: cell-based; settings: Pseudomonas aeruginosa, ATCC27853; Table I; Mueller-Hinton medium, 37° C., 24 h
Procedure: (§9) A positive control (1940 μl of culture medium+40 μl of DMSO+20 μl of the bacterial suspension) from a defrosted biological strain (the preservation of the biological strains is carried out at −80° C. in glycerol). The strains used are S. aureus ATCC 25923, E. coli ATCC 25922, P. aeruginosa ATCC 27853, C. albicans CIP 1180-79 and E. faecalis CIP 103015.
as §4, §5, §6, §7, §8

S. aureus ATCC 25923 = experiment: as above; assay type: cell-based; settings: Staphylococcus aureus, ATCC25923; Table I; Mueller-Hinton medium, 37° C., 24 h
Procedure: as §9, §4, §5, §6, §7, §8

S. faecalis = experiment: as above; assay type: cell-based, E. faecalis CIP 103015; settings: Enterococcus faecalis; Table I; Mueller-Hinton medium, 37° C., 24 h
Procedure: as §9, §4, §5, §6, §7, §8

C. albicans = experiment: as above; assay type: cell-based, C. albicans CIP 1180-79; settings: Candida albicans; Table I; 37° C., 24 h
Procedure: as §9, §4, §5, §6, §7, §8

P. aeruginosa (PAO1) [4] = experiment: MIC of conventional antibiotics alone; assay type: cell-based; settings: Pseudomonas aeruginosa, PAO1
[5] = Table I, Mueller-Hinton medium, 37° C., 24 h
[6] = Table II, comparison with state of the art compounds
[7] = Table I, Mueller-Hinton medium, 37° C., 24 h, read-out: MIC E. coli ATCC 25922
[8] = Table II, comparison with state of the art compounds, read-out: MIC E. coli

| Structure (SMILES) | Concentration of compound necessary in order to restore the activity of the antibiotic under consideration: Doxycycline (P. aeruginosa (PAO1) [1]) [µg/mL] | IC50 (CHO-K1 cells) [µM] | MIC [2, 5] [µg/mL] | MIC [2, 6] [µg/mL] | MIC (E. coli ATCC 25922; [7]) [µg/mL] | MIC (E. coli ATCC 25922; [8]) [µg/mL] | Concentration of compound necessary in order to restore the activity of the antibiotic under consideration: Chloramphenicol (P. aeruginosa (PAO1) [3]) [µg/mL] | MIC (P. aeruginosa ATCC 27853) [µg/mL] | MIC (S. aureus ATCC 25923) [µg/mL] | MIC (S. faecalis) [µg/mL] | MIC (C. albicans) [µg/mL] | MIC (P. aeruginosa (PAO1) [4]) [µg/mL] |
| --- | --- | --- | --- | --- | --- | --- | --- | --- | --- | --- | --- | --- |
| CC(C)CCC[C@@H](C)[C@H]1CCC2C3C(CC[C@@]21C)[C@@]1(C)CC[C@H](NCCCNCCCCNCCCN)C[C@@H]1C[C@H]3O (stereo partly drawn) [SA-1, 3β-Spermino-7α-hydroxy-5α-cholestane] | 4 | 15 | 2 (≈ 3.4 µM) | 2 (≈ 3.4 µM) | 16 (≈ 27.2 µM) | 16 (≈ 27.2 µM) | 16 | 32 (≈ 54.3 µM) | 4 (≈ 6.79 µM) | 2 (≈ 3.4 µM) | 2 (≈ 3.4 µM) | – |
| CC(C)CCC[C@@H](C)[C@H]1CCC2C3C(CC[C@@]21C)[C@@]1(C)CC[C@H](NCCCNCCCCNCCCN)C[C@@H]1C[C@@H]3O (stereo partly drawn) [SA-2, 3β-Spermino-7β-hydroxy-5α-cholestane] | 4 | 50 | 2 (≈ 3.4 µM) | 2 (≈ 3.4 µM) | 32 (≈ 54.3 µM) | 32 (≈ 54.3 µM) | 16 | 32 (≈ 54.3 µM) | 4 (≈ 6.79 µM) | 2 (≈ 3.4 µM) | 2 (≈ 3.4 µM) | – |
| CC(C)CCC[C@@H](C)[C@H]1CCC2C3C(CC[C@@]21C)[C@@]1(C)CC[C@H](NCCCNCCCN)C[C@@H]1C[C@@H]3O (stereo partly drawn) [SA-3, 3β-Norspermidino-7β-hydroxy-5α-cholestane] | 5 | 32 | 2.5 (≈ 4.83 µM) | 2.5 (≈ 4.83 µM) | 20 (≈ 38.6 µM) | 20 (≈ 38.6 µM) | 10 | 40 (≈ 77.2 µM) | 5 (≈ 9.65 µM) | 2.5 (≈ 4.83 µM) | 2.5 (≈ 4.83 µM) | – |
| CC(C)CCC[C@@H](C)[C@H]1CCC2C3C(CC[C@@]21C)[C@@]1(C)CC[C@H](NCCCN)C[C@@H]1C[C@H]3O (stereo partly drawn) [SA-4, 3β-(1,3-Diaminopropane)-7β-hydroxy-5α-cholestane] | – | 9 | 2 (≈ 4.34 µM) | 2 (≈ 4.34 µM) | 32 (≈ 69.4 µM) | 32 (≈ 69.4 µM) | – | 32 (≈ 69.4 µM) | 4 (≈ 8.68 µM) | 2 (≈ 4.34 µM) | 2 (≈ 4.34 µM) | – |
| CC(C)CCC[C@@H](C)[C@H]1CCC2C3C(CC[C@@]21C)[C@@]1(C)CC[C@H](NCCCCN)C[C@@H]1C[C@H]3O (stereo partly drawn) [SA-5, 3β-(1,4-Diaminobutane)-7β-hydroxy-5α-cholestane] | – | 15 | 4 (≈ 8.42 µM) | 4 (≈ 8.42 µM) | 32 (≈ 67.4 µM) | 32 (≈ 67.4 µM) | – | 32 (≈ 67.4 µM) | 4 (≈ 8.42 µM) | 4 (≈ 8.42 µM) | 4 (≈ 8.42 µM) | – |
| CC(C)CCC[C@@H](C)[C@H]1CCC2C3C(CC[C@@]21C)[C@@]1(C)CC[C@H](NCCN(CCN)CCN)C[C@@H]1C[C@H]3O (stereo partly drawn) [SA-6, 3β-(Tris(2-aminoethyl)amine)-7β-hydroxy-5α-cholestane] | 2.5 | 46 | 5 (≈ 9.38 µM) | 5 (≈ 9.38 µM) | 20 (≈ 37.5 µM) | 20 (≈ 37.5 µM) | 20 | 40 (≈ 75.1 µM) | 5 (≈ 9.38 µM) | 2.5 (≈ 4.69 µM) | 2.5 (≈ 4.69 µM) | – |
| CC(C)[C@@H](CC[C@@H](C)[C@H]1CC[C@H]2[C@@H]3[C@H](O)C[C@H]4C[C@@H](NCCCNCCCCN)CC[C@]4(C)[C@H]3CC[C@]12C)OS(=O)(=O)O [Squalamine, squalamine] | 1.75 | – | 4 (≈ 6.37 µM) | – | 12 (≈ 19.1 µM) | – | 1.75 | 20 (≈ 31.8 µM) | 4 (≈ 6.37 µM) | 4 (≈ 6.37 µM) | 2 (≈ 3.18 µM) | – |
| O=C(N[C@H](CO)[C@H](O)c1ccc([N+](=O)[O-])cc1)C(Cl)Cl [chloramphenicol] | – | – | – | – | – | – | – | – | – | – | – | 1020 |
